Measured values from US20240166662A1, “THIOPHENE BASED COMPOUNDS AND USE THEREOF AS BCKDK INHIBITORS” (Ramino-Bio Ltd., priority 2021, published 2024).
Like-named read-outs stand apart in the source and are kept apart here. One block for each compound: values may come before it.

Experiments:
BDK [1] = molecular target: T1, BDK (Homo sapiens, UniProt O14874); assay: BDK inhibitory activity in cell culture (human lymphoblasts); format: cell-based
T1 construct: endogenous in cells; host or cells: human lymphoblasts

BDK (MBP-BDK) [2] = molecular target: T2, BDK (MBP-BDK) (UniProt Q00972); assay: Cell-free BDK activity assay (ADP-Glo kinase kit); format: biochemical; settings: cell-free BDK activity assay
T2 construct: IC50 BDK; other: cell-free BDK activity assay; other: in-vitro; assay not specified
From the text: (§1) Cell-free BDK activity assay was developed based on protocols and published work of David Chuang as described in Tso et al. 2014. Briefly, The main components of the enzymatic cell-free activity assay are the kinase-BDK (MBP-BDK), its 14 kDa synthetic substrate Lip-LBD-PhP, and ATP. The detection is being done with Promega ADP-Glo™ kinase kit. The assay is robust generating an assay window (AW)>5 and Z′−factor>0.5. The concentrations of all assay components were reduced relative to published concentrations and the assay was validated using known BDK inhibitors.
(§2) Constructs: a synthetic 14 KDa peptide that serves as a substrate for BDK instead of the multimeric BCKDH. This peptide, named LBD-PhP, is composed of the lipoyl binding domain (LBD) of the BCKDH E2 subunit connected by a linker to the phosphorylation peptide (PhP) of the E1α subunit. LBD-PhP is lipoylated in vitro using the E. Coli enzyme—lipoylate ligase (Lp1A) to achieve enhancement of BDK substrate phosphorylation. Additionally, a chimeric BDK in which the kinase is fused in its N-terminus to MBP, generating-MBP-BDK to increase BDK solubility and stability.
(§3) Reaction: The ADP detection is composed of the following steps:
(§4) Kinase reaction is performed by adding BDK, lip-LBD-PhP and ATP and incubating for 60 min at room temperature. This is done in solid white 384-well plates and the total volume of the reaction is 10 μl.
(§5) ADP-Glo reagent is added to terminate the kinase reaction and to deplete the remaining ATP and incubated for 40 min.
(§6) Kinase detection reagent is added for ADP detection: The ADP is converted to ATP and using a series of enzymatic reactions the newly synthesized ATP generates a luminescent signal which is proportional to the amount of the initial ADP formed by the kinase reaction. Luminescence is measured using a plate reader (Tecan Spark 20M plate reader).
(§7) In a typical experiment the AW and Z-factor are calculated from 12 repeats of positive control (100% activity) and 12 repeats of negative control (0% activity).
(§8) Positive control (100% activity)=maximal kinase activity with ATP and substrate. Negative control (0% activity)=minimal kinase activity with ATP alone (no substrate). AW: Average100%/Average0%. Z-factor: 1−((3*STDEV100%+3*STDEV0%)/(Average100%−Average0%)).
(§9) Each 384-well plate-based screening experiment includes serial dilutions of 14 different compounds and the following controls: 1. A known BDK tool compound BT2 (for allosteric inhibitors)/Radicicol (for ATP-pocket inhibitors) 2. Twelve repeats of positive and negative controls. Analyzed compounds and tool compounds are serially diluted, 8-point half log from 50 μM to 16 nM in triplicates. The positive and negative controls are used to calculate AW and Z-factor and to enable data normalization.

[3] = Plasma protein binding (human); format: in vitro ADME
From the text: (§10) Various pharmacokinetic parameters of exemplary compounds of the invention have been established in-vivo and are presented in Table 2 below.

[4] = Pharmacokinetic parameters in-vivo (IV, IP, PO); settings: for AUC: read-out: Exposure (AUC); for bioavailability: read-out: Oral bioavailability (F); for Vd: read-out: Volume of distribution (Vd)
From the text: as §10

BDK [5] = molecular target: T1, BDK; assay: Cell-based ELISA of BDK activity (E1α phosphorylation level) in WT and iMSUD patient derived lymphoblasts; settings: WT and mutant lymphoblasts derived from iMSUD patients
From the text: Accordingly, the inventors performed cell studies in order to test the efficacy of the exemplary compounds of the invention on the BCKDH E1α subunit phosphorylation level, as it is BDK substrate in WT and iMSUD lymphoblasts and fibroblasts. Efficacy of the tested compounds RMO-1154 and RMO-800 in 2 MSUD lymphoblasts lines has been determined using cell-based ELISA to quantify BDK activity in treated cells as monitored by the phosphorylation level of BDK substrate, E1α. Healthy donor cells and BT2 (commercially available BDK inhibitor) have been used as positive controls.

[6] = Plasma protein binding (mouse); format: in vitro ADME
From the text: as §10

[7] = test system: BCKA (KIV, KIC, KMV) plasma concentration; assay: In-vivo BCKA plasma concentration in WT mice by LC-MS; settings: for reduction of BCKA (such as KIC and/or KMV) plasma concentrations: 3 single doses a day for 7 days, day 8, WT mice
From the text: An alternative assay for assessment of BCKDH activity comprises measuring of BCKAs blood (e.g. plasma) concentration within the subject. BCKAs (such as a-keto isovalerate (abbreviated as KIV), sodium a-keto isocaproate (abbreviated as KIC), sodium a-keto β-methylvalerate (abbreviated as KMV)) are downstream metabolites of BCAAs, and the substrates of BCKDH complex, and are considered to be reliable and sensitive biomarkers for BDK inhibition and BCKDH complex activity enhancement.
BCKA blood concentration of a subject can be determined by various analytical methods, such as by LC-MS.
The inventors performed an in-vivo study by administering an exemplary compound of the invention (RMO-1154) to 8-10 week-old […] WT mice (n=5). RMO-1154 has been administered (per os, 3 single doses a day every 8 hrs, for 7 days) at various single doses (10 mg/kg, 30 mg/kg, and 100 mg/kg). At day 8, KIV, KIC and KMV plasma concentration has been determined by LC-MS.

BDK (MBP-BDK) [8] = assay: Cell-free BDK activity assay (ADP-Glo kinase kit); format: biochemical; settings: in-vitro
From the text: as §1, §2, §3, §4, §5, §6, §7, §8, §9

BCKDH = settings: WT and iMSUD patient derived lymphoblasts; cited from earlier work
[9] = human lymphoblasts, read-out: IC50 lymphoblasts

- IC50 (BDK [1]; lymphoblasts cells, unit inferred): 2860 to 13600 nM
Structure (SMILES): O=C(O)c1[se]c2cc(Cl)ccc2c1Cl [RMO-1152, 3,6-dichlorobenzo[b]selenophene-2-carboxylic acid]

- IC50 (BDK (MBP-BDK) [2]): 470 nM
- IC50 (BDK [1]; [9]): 170 nM
Structure (SMILES): O=C(O)c1sc2sc(F)cc2c1F [RMO-801, 2,4-difluorothieno[2,3-b]thiophene-5-carboxylic acid]

- IC50 (BDK (MBP-BDK) [2]): 490 nM
- IC50 (BDK [1]; [9]): 290 nM
Structure (SMILES): O=C(O)c1sc2sccc2c1F [RMO-1153, 4-fluorothieno[2,3-b]thiophene-5-carboxylic acid]

- IC50 (BDK (MBP-BDK) [2]): 560 nM
- fraction unbound [3]: 0.015
- AUC ([4]; ip, 3 mg/kg): 18000 ng·h/mL
- bioavailability ([4]; ip, 3 mg/kg): 98%
- AUC ([4]; iv, 1 mg/kg): 6130 ng·h/mL
- Vd ([4]; iv, 1 mg/kg): 0.15 L/kg
- AUC ([4]; po, 3 mg/kg): 19400 ng·h/mL
- bioavailability ([4]; po, 3 mg/kg): 104%
- IC50 (BDK [1]; [9]): 580 nM
- BDK inhibitory activity (FIGS. 1A-1B, in words) (BDK [5]): BDK inhibitory activity
- fraction unbound [6]: 0.108
Structure (SMILES): O=C(O)c1sc2cscc2c1F [RMO-1154, 3-fluorothieno[3,4-b]thiophene-2-carboxylic acid]
- reduction of BCKA (such as KIC and/or KMV) plasma concentrations ([7]; 10 mg/kg per os): about 2 fold
- reduction of BCKA (such as KIC and/or KMV) plasma concentrations ([7]; 30 mg/kg per os): 8-10 fold
- reduction of BCKA (such as KIC and/or KMV) plasma concentrations ([7]; 100 mg/kg per os): 10-12 fold
- in-vivo reduction of BCKA (KIV, KIC, KMV) concentration in plasma (FIG. 2, in words) ([7]; WT mice, day 8): dose dependent in-vivo reduction

- IC50 (BDK (MBP-BDK) [2]): 800 nM
- IC50 (BDK [1]; [9]): 380 nM
Structure (SMILES): O=C(O)c1cc2c(F)sc(F)c2s1 [RMO-1149, 4,6-difluorothieno[3,4-b]thiophene-2-carboxylic acid]

- IC50 (BDK (MBP-BDK) [2]): 100 nM
- fraction unbound [3]: 0.008
- AUC ([4]; ip, 3 mg/kg): 14700 ng·h/mL
- bioavailability ([4]; ip, 3 mg/kg): 136%
- AUC ([4]; iv, 1 mg/kg): 3580 ng·h/mL
- Vd ([4]; iv, 1 mg/kg): 0.16 L/kg
- AUC ([4]; po, 3 mg/kg): 12700 ng·h/mL
- bioavailability ([4]; po, 3 mg/kg): 118%
- IC50 (BDK [1]; [9]): 100 nM
- BDK inhibitory activity (FIGS. 1A-1B, in words) (BDK [5]): BDK inhibitory activity
- fraction unbound [6]: 0.012
Structure (SMILES): O=C(O)c1cc2c(F)c(F)sc2s1 [RMO-800, 4,5-difluorothieno[2,3-b]thiophene-2-carboxylic acid]

Second part, the compound before the results:

Structure (SMILES): O=C(O)c1cc2cscc2s1
- BDK inhibitory activity in-vitro (in words) (BDK (MBP-BDK) [8]): significant BDK inhibitory activity

Structure (SMILES): O=C(O)c1sc2cc(Cl)ccc2c1Cl [BT2]
- BCKDH activity (in words) (BCKDH): increase of the BCKDH activity

Structure (SMILES): CC(=O)Nc1nonc1NC(=O)c1sc2cc(Cl)ccc2c1Cl [BT3]
- BCKDH activity (in words) (BCKDH): increase of the BCKDH activity

Structure (SMILES): O=C(O)c1sc2cc(F)ccc2c1Cl [BT2F]
- BCKDH activity (in words) (BCKDH): increase of the BCKDH activity

Structure (SMILES): O=C(O)c1cc2cc(F)sc2s1 [RMO-1153B, 5-fluorothieno[2,3-b]thiophene-2-carboxylic acid]
- IC50 (BDK (MBP-BDK) [2]): 610 nM
